Where “and” joins values, the source holds several entries; their conditions need not be identical. Identical values can stand only once.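 Test compounds were applied to cells in 96-well plates for 48 hours at 5 doses. Here, GI50 denotes the concentration required for 50% inhibition of growth. At the TGI there is no net growth.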
How the values were obtained:
Assay in all cases: NCI anticancer screen, dose series, 48 h
UACC-257 melanoma = system: UACC-257 melanoma
NCI-H522 lung = system: NCI-H522 lung
SF-295 CNS = system: SF-295 CNS
SNB-19 CNS = system: SNB-19 CNS
SN12C renal = system: SN12C renal
NCI-H226 lung = system: NCI-H226 lung
MCF7 breast = system: MCF7 breast
HT29 colon = system: HT29 colon
HCC-2998 colon = system: HCC-2998 colon
ACHN renal = system: ACHN renal
MDA-N = system: MDA-N
U251 CNS = system: U251 CNS
SF-268 CNS = system: SF-268 CNS
CCRF-CEM leukemia = system: CCRF-CEM leukemia

SMILES | TGI (UACC-257 melanoma) | TGI (NCI-H522 lung) [µM] | TGI (SF-295 CNS) [µM] | TGI (SNB-19 CNS) [µM] | TGI (SN12C renal) | TGI (NCI-H226 lung) [µM] | TGI (MCF7 breast) [µM] | TGI (HT29 colon) | TGI (HCC-2998 colon) [µM] | TGI (ACHN renal) | TGI (MDA-N) [µM] | TGI (U251 CNS) [µM] | TGI (SF-268 CNS) [µM] | TGI (CCRF-CEM leukemia) | GI50 (SF-268 CNS) [µM] | GI50 (CCRF-CEM leukemia)
COc1ccc(C2SCC(=O)N2c2ccc(-n3c(-c4ccccc4)nc4ccccc4c3=O)cc2)cc1OC (stereo unspecified) | > 100 µM | > 100 | > 100 | > 100 | > 100 µM | > 100 | > 100 | > 100 µM | > 100 | > 100 µM | > 100 | > 100 | > 100 | > 100 µM |  | 
N#CCCN(CCC#N)c1ccc(C(N=Nc2ccccc2)=Nc2ccccc2)cc1 | > 100 µM | > 100 | > 100 | > 100 | > 100 µM | > 100 | > 100 | > 100 µM | > 100 | > 100 µM | > 100 | > 100 | > 100 | > 100 µM |  | 
O=[N+]([O-])c1ccc(C2=NOC(c3ccccc3F)N2C23CC4CC(CC(C4)C2)C3)cc1 (stereo unspecified) | > 100 µM | > 100 | > 100 |  | > 100 µM | > 100 | > 100 | > 100 µM | > 100 | > 100 µM | > 100 | > 100 | > 100 | > 100 µM |  | 
CCCc1cc(=O)oc2c3c(c4c(c12)OC(C)(C)C=C4)O[C@@H](C)[C@H](C)C3=O | 37.3 µM | 29.8 | 31.7 | 37.5 | 41.4 µM | 41.6 | 46.3 | 23.2 µM | 34.5 | 24.9 µM | 36.4 | 97.6 | 45.2 | 48.3 µM |  | 
CCCCCCOc1ccc(C(=O)NOCc2ccccc2)cc1 | > 100 µM | > 100 | > 100 | > 100 | > 100 µM | > 100 | > 100 | > 100 µM | > 100 | > 100 µM | > 100 | > 100 | > 100 | > 100 µM |  | 
CC1OC(OC2C(O[C@H]3CC[C@@]4(C)[C@@H](CC[C@@H]5[C@@H]4CC[C@]4(C)[C@@H]6[C@H](C[C@@H]54)O[C@]4(CC[C@@H](C)CO4)[C@H]6C)C3)OC(CO)C(OC3OC(CO)C(O)C(OC4OCC(O)C(O)C4O)C3OC3OCC(O)C(O)C3O)C2O)C(O)C(O)C1O (stereo partly specified) | 2.34 µM |  | 1.93 | 2.33 |  | 3.58 | 0.914 | 1.71 µM | 3.01 | 2.2 µM | 36.3 | 1.79 | 3.37 | 0.499 µM |  | 
CCOC(=O)CCC(NC(=O)c1ccc(Oc2nc3ccc(C(F)(F)F)cc3nc2-c2ccccc2)cc1)C(=O)OCC (stereo unspecified) | > 100 µM | > 100 | > 71.6 | > 100 | > 100 µM | 17.6 | > 100 | > 75.2 µM | > 100 | > 100 µM | > 100 | > 100 | 42.1 | > 100 µM |  | 
O=C1C(CN2CCCCC2)CCCC1CN1CCCCC1 (stereo unspecified) | 57.9 µM and 31.7 µM |  | > 100 | > 100 | > 31.6 µM and 48.7 µM | > 100 | 7.87 | 34.2 µM and 40.8 µM | > 100 | 34 µM and 39.3 µM | 29.7 | > 100 | > 100 | 20.6 µM and > 22.6 µM | > 89.2 | 4.86 µM and 2.41 µM
CON(C)C(C#N)=C(C#N)C#N |  | > 10 | > 10 | > 10 | > 10 µM | > 10 | > 10 | > 10 µM | > 10 | > 10 µM | > 10 | > 10 | > 10 | > 10 µM |  | 
CN1CN(c2ccccc2)C2(CCN(CCCSc3ccccc3NC(=O)/C=C/c3ccccc3)CC2)C1=O | 3.34 µM | 62.4 | 7.95 | 25.1 | 15.1 µM | 5.56 | > 49.8 | 5.75 µM | 20.6 | 9.81 µM | 6.33 | 22.5 | > 46 | > 100 µM |  | 
COc1ccc(N=C(C)c2ccncc2)cc1 | > 100 µM | > 100 | > 100 | > 100 | > 100 µM | > 100 | > 100 | > 100 µM | > 100 | > 100 µM | > 100 | > 100 | > 100 | > 100 µM |  | 
CC(C)(C)N(Cc1ccc2c(c1)OCO2)C(=O)/C=C\S(=O)c1ccccc1 (stereo unspecified) | 12.5 µM | 2.14 | 22.9 | 20.7 | 9.03 µM | 11.2 | 14.2 | 12.9 µM | 13.8 | 15.2 µM | 12.7 | 14.9 | 5.78 | > 100 µM |  | 
CC(C)NC(=O)CN1CCN(C2=CC(=O)c3c(O)ccc(O)c3C2=O)CC1 | 19.8 µM | 34.5 | 32.6 | 37.2 | 29.1 µM | > 68.8 | 9.35 | 12.3 µM | 30.4 | 54.1 µM | 16.3 | 35.9 | 53.1 | > 95.2 µM |  | 
Cc1ccc(-c2c(C#N)c(S)n(NS(=O)(=O)c3ccc(C)cc3)c(=O)c2C#N)cc1 | > 100 µM | 48.1 | 51.3 | 52.1 | > 100 µM | 39.6 | > 100 |  | 46.9 | 49.8 µM | > 100 | 37.7 |  | > 100 µM |  | 
O=C1/C(=C\c2cccc(Oc3ccccc3)c2)S(=O)(=O)C(c2ccccc2)N1c1ccc(Cl)cc1 (stereo unspecified) | 94.3 µM | 29.5 | 41.2 | 55.9 | 29 µM | > 100 | 62.9 | 28.2 µM | > 100 | 36.9 µM | 29 | 30.5 |  | 79.1 µM |  | 
O=c1cc(N2CCOCC2)[nH]c(=O)n1-c1cccc(C(F)(F)F)c1 | > 100 µM | > 100 | > 100 |  | > 100 µM | > 100 | > 100 | > 100 µM | > 100 | > 100 µM | > 100 | > 100 | > 100 | > 100 µM |  | 
Cc1cccc2c1Oc1cc(Cl)ccc1C2NC(=O)CCN1CCN(CCO)CC1 (stereo unspecified) | 33.7 µM | 23.2 | 33 | 72 | 28.7 µM |  | 30.3 | 29.8 µM | 43.7 |  | 14.6 | 29.3 | > 100 | 37.9 µM |  | 
CCCCC(=O)Nc1ccc2cc(C(=O)OC)c(ON3C(=O)c4ccccc4C3=O)nc2n1 | > 100 µM | 58.5 | > 100 | > 100 | > 100 µM | 60.2 | > 100 |  | > 100 | > 100 µM | 80.7 | > 100 | 81.2 | > 100 µM |  | 
O=C1CCC[C@]2(CCC[C@@H](O)C2)N1 | > 100 µM | > 100 | > 100 | > 100 | > 100 µM |  | > 100 | > 100 µM | > 100 | > 100 µM | > 100 |  | > 100 | > 100 µM |  | 
COc1cc(-c2oc3c(OC)c(O)c(OC)c(O)c3c(=O)c2OC)cc(O)c1OC | > 100 µM | > 100 | 53.6 | > 100 | > 100 µM | > 100 | > 100 | > 100 µM | > 100 | > 100 µM | 36.2 | > 100 |  | 79.4 µM |  | 
CC(C)(C)c1ccc(-c2nc3ccc([N+](=O)[O-])cc3c(=O)o2)cc1 | 81.2 µM | 40.7 | 76.4 | > 100 | > 100 µM |  | 89.2 | 69.4 µM | 33 | 90.5 µM | > 100 | 43.4 | > 100 | 58.2 µM |  | 
CC(=O)C(=[N+]=[N-])C(=O)OC(C)(C)C#N | > 10 µM |  | > 10 | > 10 | > 10 µM | > 10 | > 10 | > 10 µM | > 10 | > 10 µM | > 10 | > 10 | > 10 | > 10 µM |  | 
CCCCn1c(C)c(C(=O)OCC)s/c1=N/Nc1nc2ccccc2nc1-c1ccccc1 | > 100 µM | > 100 | > 100 | > 100 | > 100 µM | > 100 | > 100 | > 100 µM | > 100 | > 100 µM | > 100 | > 100 |  | > 100 µM |  | 
COC(=O)C1(Cc2ccc3c(c2)CCC3)Cc2ccc3c(c2C1O)CCC3 (stereo unspecified) | 26.1 µM | 25.6 | 42.4 |  | 28.5 µM | 45 | 26.9 | 31.6 µM | 30.9 | 26.7 µM | 29.8 | 30.6 | 69.8 | > 100 µM |  | 
O=C(/C=C/c1ccc(Cl)cc1)Oc1ccc(/C=C2\CCCCC2=O)cc1 | > 100 µM | > 100 | > 100 |  | > 100 µM |  | > 100 | > 100 µM | > 100 | > 100 µM | > 100 | > 100 | > 100 | > 100 µM |  | 

— PubChem BioAssay (NCI)
